Results reported in patent publication US20260048155A1, “BIOCOMPATIBLE PARAHYDROGEN HYPERPOLARIZED SOLUTIONS BY PRECIPITATION AND RE-DISSOLUTION” (North Carolina State University, priority 2022, published 2026).
Several values for one entry are separate records, joined by “and”; a condition that tells them apart may be missing. Equal values may be shown once.

Columns and labels:
[1] = SABRE-SHEATH hyperpolarization, 13C polarization quantified at 1.4 T benchtop NMR; format: physicochemical
Description: A previously reported setup and experimental protocol has been used to prepare high P13C of up to ≈14.5% of 30 mM [1-^13C]pyruvate in methanol, which was confirmed after transferring the HP samples from the polarizer into a 1.4 T benchtop ^1H/^13C NMR system. The mean of N=19 experiments from 9 samples measured on 5 different days under the same conditions was 8±2%. […] These hyperpolarization values correspond to ^13C enhancement ε13C of ≈75,000-fold. The optimal experimental parameters are obtained via sweeping the static magnetic field (optimum transfer field BT≈0.4 μT) and temperature (TT≈10° C.) using a p-H2 flow rate of 75 standard cubic centimeters per minute (scc/m), and ≈7 bar total pressure, FIGS. 4A-4B, respectively.
(§1) CD3OD is widely used as the SABRE-reaction-hosting solvent because it provides convenient means of attaining high-field NMR spectrometer lock. However, non-deuterated polarization media may be preferred for biomedical applications. For this reason, systematic relaxation dynamics studies were performed comparing CD3OD, CH3OH, and C2H5OH for SABRE-SHEATH [1-^13C]pyruvate hyperpolarization, investigating relevant parameters for these solvents and for fixed concentrations of pyruvate, SABRE catalyst, and DMSO (30 mM, 6 mM, and 40 mM, respectively). However, the ethanol sample was prepared with only 6 mM pyruvate and 10% H2O due to limited solubility. The optimal Br was similar in all investigated samples (≈0.4 μT, FIG. 4A). […] (FIG. 4B). Thus, all the experiments described below were performed using these optimized Br and Tr parameters.
Preparation of samples: Parahydrogen was enriched to >99.10% and filled into aluminum cylinders at 350 psi using a setup described previously. The SABRE samples were prepared in CD3OD (CAS: DLM-24-25), CH3OH (CAS: 67-56-1), or ethanol (CAS: 64-17-5) using the stated concentration of sodium pyruvate (in most cases 30 mM, natural abundance—CAS: 113-24-6; [1-^13C]-labeled—CAS: 490709-250 MG), an iridium catalyst at 6 mM concentration synthesized as described previously, doped with 40 mM dimethyl sulfoxide (DMSO) to block one active center of the catalyst and to avoid pyruvate from binding to the catalyst at two sites. Oxygen was removed from the samples by guiding argon gas at approximately ambient pressure through the samples for ˜1 min. Also, oxygen was removed from all solvents used for the preparation of the samples (methanol or ethanol) or for the precipitation of pyruvate (ethyl acetate (EtAc), room temperature, CAS: 141-78-6) prior to mixing them to the catalyst substrate solutions. For the SABRE experiments, the samples were filled into medium wall, or in case of precipitation studies, into regular wall NMR tubes (SKU: WG-1000-8, outer diameter 5 mm, inner diameter 4 mm and length 8 inches). Note that the total volume of the catalyst-substrate sample was 600 μL (in the baseline and solvent study) or 100 μL in experiments were precipitation and phase separation were performed. In case of dissolution SABRE, 300 μL of room-temperature H2O (HPLC grade-submicron filtered) or D2O (CAS: 7789-20-0) were added.
SABRE hyperpolarization setup: The experimental setup has been used previously but will be described in much greater detail elsewhere. Briefly, it consisted of a 3-layer mu-metal of 3″ I.D. and 9″ DEPTH to shield external magnetic fields (Magnetic Shield Corporation, ZG-203), combined with a custom-made solenoid to generate a static magnetic field, B0, of ˜300 nT (28 AWG wire, 650 windings, 7″ homogeneous length). Note that this coil provided a constant magnetic field here (5 VDC power supply connected to the solenoid via a resistor board to regulate the current and effectively set the magnetic field). […]

[2] = SABRE polarization build-up and T1 relaxation dynamics in SABRE solvents; format: physicochemical; settings: for 13C T1 decay / polarization build-up Tb: 0.4 μT
Description: as §1
The polarization build-up (Tb) and decay (T1) at 0.4 μT were similar: Tb=13.7±0.6 s versus 19.3±0.6 s; and T1=26.0±0.4 s versus 29.1±0.8 s, respectively (FIGS. 4C, 4E). P13C values were also similar; in one representative example of polarization build-up, P13C was 7.8±0.1% vs. 8.5±0.1% for CH3OH and CD3OD media, respectively, FIG. 4D. […] For ethanol, 1.4-fold lower P13C values were obtained in this mixture compared to CH3OH and CD3OD, which is rationalized by a more efficient relaxation at the SABRE-SHEATH field, FIG. 4E.
Data fitting and error propagation for relaxation and polarization build-up data presented in FIGS. 4A-4I: Data in FIGS. 4C, 4F, 4H was fitted using mono-exponential functions (solid lines) and extracted values with error of polarization build-up or relaxation are presented in bar plots (FIGS. 4D, 4E, 4G, 4I).

With CC(=O)[13C](=O)O [[1-^13C]pyruvate] the “fold lower P13C compared to CH3OH and CD3OD” value ([1]; 6 mM in 90% C2H5OH + 10% H2O) was 1.4 fold, the P13C ([1]; 30 mM in CD3OD, representative polarization build-up at 0.4 μT) was 8.5±0.1% and the P13C ([1]; 30 mM in CH3OH, representative polarization build-up at 0.4 μT) was 7.8±0.1%. The “P13C, mean” value ([1]; 30 mM in methanol, N=19 experiments from 9 samples on 5 days, inter-day mean with s.d.) was 8±2%, the “P13C, maximum” value ([1]; 30 mM in methanol, SABRE-SHEATH, detected at 1.4 T) was “≈ 14.5% and 14.5%” and the P13C ([1]; 60 mM in CH3OH, 6 mM catalyst, p-H2 80 scc/m) was 3.7±0.06%. For the same compound, the “P13C, mean base-line before precipitation” value ([1]; in CH3OH, batch used for filtering tests) was 10±1%, the “13C enhancement ε13C” value ([1]; in methanol, vs thermal polarization at 1.4 T) was “≈ 75,000 fold” and the “13C T1 decay” value ([2]; 30 mM in CD3OD) was 26.0 ± 0.4 s. The “polarization build-up Tb” value ([2]; 30 mM in CD3OD) was 13.7 ± 0.6 s, the “13C T1 relaxation time” value ([2]; 30 mM in CD3OD, 1.4 T) was 86 ± 2 s and the “13C T1 decay” value ([2]; 30 mM in CH3OH) was 29.1 ± 0.8 s. The “polarization build-up Tb” value ([2]; 30 mM in CH3OH) was 19.3 ± 0.6 s, the “13C T1 relaxation time” value ([2]; 30 mM in CH3OH, 1.4 T) was 59.3 ± 0.8 s and the T1 relaxation time ([2]; 60 mM in CH3OH, 1.4 T) was 59.3 ± 0.5 s. The T1 relaxation time ([2]; 60 mM in CH3OH, 300 nT) was 34.6 ± 1.1 s, the “polarization build-up time constant Tb” value ([2]; 60 mM in CH3OH, 300 nT) was 22.0 ± 0.7 s and the “1-13C T1” value ([2]; dissolved in CH3OH:catalyst mixture, Earth's field) was 46.5 ± 0.9 s.
